Measurements reported in patent publication US20200247800A1, “SUBSTITUTED BICYCLIC HETEROCYCLIC COMPOUNDS AS NADPH OXIDASE INHIBITORS” (Glenmark Pharmaceuticals S.A., priority 2017, published 2020).
Structures can show the parent of a compound that is named as a salt.

Target: T1, human NOX4 (Homo sapiens, UniProt Q9NPH5)
T1 construct: expressed in transfected cells; membrane fraction used
T1 sequence (Q9NPH5 1-578): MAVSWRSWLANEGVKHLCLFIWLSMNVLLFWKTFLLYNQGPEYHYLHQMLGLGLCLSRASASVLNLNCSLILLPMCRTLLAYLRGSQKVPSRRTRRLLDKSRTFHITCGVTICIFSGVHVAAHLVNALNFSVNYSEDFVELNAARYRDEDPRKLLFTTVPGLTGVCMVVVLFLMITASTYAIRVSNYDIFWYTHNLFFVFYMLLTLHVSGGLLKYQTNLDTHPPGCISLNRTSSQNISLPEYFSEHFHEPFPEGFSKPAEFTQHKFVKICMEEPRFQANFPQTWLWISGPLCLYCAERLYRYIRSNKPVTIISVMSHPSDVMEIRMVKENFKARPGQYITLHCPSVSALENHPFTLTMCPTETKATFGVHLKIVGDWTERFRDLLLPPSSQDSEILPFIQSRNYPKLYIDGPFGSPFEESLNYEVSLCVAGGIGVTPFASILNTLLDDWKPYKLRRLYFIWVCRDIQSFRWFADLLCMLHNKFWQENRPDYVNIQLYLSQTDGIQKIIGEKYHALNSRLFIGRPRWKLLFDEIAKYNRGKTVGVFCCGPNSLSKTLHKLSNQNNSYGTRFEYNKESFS
T1 sequence (P13498 1-195 partner): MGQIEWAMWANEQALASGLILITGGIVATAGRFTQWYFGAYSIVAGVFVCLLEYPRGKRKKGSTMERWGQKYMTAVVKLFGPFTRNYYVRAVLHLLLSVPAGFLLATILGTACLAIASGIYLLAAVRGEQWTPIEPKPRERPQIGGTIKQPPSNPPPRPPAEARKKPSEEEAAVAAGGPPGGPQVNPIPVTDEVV
Assay: Cell free membrane based in vitro NOX4 assay: H2O2 production by membranes expressing human NOX4, measured with Amplex Red
Type: biochemical
Details: for inhibition at 1 µM: 1.0 μM compound, read-out: Percentage inhibition at 1.0 μM; for inhibition at 10 µM: 10.0 μM compound, read-out: Percentage inhibition at 10.0 μM; for IC50: class symbols
Protocol: The inhibition of NOX4 activity was measured as inhibition of formation of reactive oxygen species (ROS) from oxygen in cell free assays. […] A cell free membrane based in vitro assay was developed by preparing membranes from cells stably overexpressing human NOX4. hNOX4/HEK stable cell line was generated in-house for this purpose. Membranes from stably transfected cells overexpressing human NOX4 were prepared by homogenizing the cells in buffer (20 mM HEPES, 1 mM EGTA, 0.5 mM DTT, 0.5% protease inhibitor cocktail, 1 mM PMSF, pH 7.6), followed by centrifugation at 160000 g for 30 min. Membrane fraction (pellet) was resuspended in storage buffer (homogenization buffer with 10% glycerol and 100 mM NaCl) and stored at −80° C. Protein concentration was determined by Bradford reagent. H202 production by membranes expressing human NOX4 was measured using Amplex Red (Invitrogen) by following a slightly modified version of the manufacturer's instruction manual. Briefly, membranes were incubated in assay buffer (25 mM HEPES, 0.12 M NaCl, 3 mM KCl, 1 mM MgCl2, pH 7.4) with Horse Radish Peroxidase (HRP) and Amplex Red. Reaction was started by addition of […] to the membrane mix. Antagonism of NOX4 inhibitors was measured by incubating the membrane with increasing concentrations of the inhibitors for 20 min on a plate shaker prior to addition of NADPH. H2O2 levels were measured for 10 min in a BMG Fluostar microplate reader with excitation and emission wavelengths of 544 nm and 590 nm respectively. Concentration response curves were plotted as a % of maximal response obtained in the absence of the inhibitor. IC50 value was calculated from concentration response curve by nonlinear regression analysis using GraphPad PRISM software.

CCn1nc(C)c2c(=O)c(O)c(-c3ccccc3Cl)[nH]c21 [Example 26, 6-(2-Chlorophenyl)-1-ethyl-5-hydroxy-3-methyl-1,7-dihydro-4H-pyrazolo[3,4-b]pyridin-4-one]
inhibition at 1 µM: 89.7% | inhibition at 10 µM: 64.5% | IC50: 50 to 100 nM

Cc1nn(CC(F)(F)F)c2[nH]c(-c3ccccc3Cl)c(O)c(=O)c12 [Example 27, 6-(2-Chlorophenyl)-5-hydroxy-3-methyl-1-(2,2,2-trifluoroethyl)-1,7-dihydro-4H-pyrazolo[3,4-b]pyridin-4-one]
inhibition at 1 µM: 98.2% | inhibition at 10 µM: 100% | IC50: 100 to 150 nM

Cc1nn(C(C)C)c2[nH]c(-c3ccccc3Cl)c(O)c(=O)c12 [Example 28, 6-(2-Chlorophenyl)-5-hydroxy-3-methyl-1-(propan-2-yl)-1,7-dihydro-4H-pyrazolo[3,4-b]pyridin-4-one]
inhibition at 1 µM: 82.1% | inhibition at 10 µM: 58.9% | IC50: 100 to 150 nM

COc1ccc(-n2nc(C)c3c(=O)c(O)c(-c4c(F)cccc4F)[nH]c32)cc1 [Example 29, 6-(2,6-Difluorophenyl)-5-hydroxy-1-(4-methoxyphenyl)-3-methyl-1,7-dihydro-4H-pyrazolo[3,4-b]pyridin-4-one]
inhibition at 1 µM: 89.4% | inhibition at 10 µM: 95.6% | IC50: 100 to 150 nM

Cc1nn(-c2ccccn2)c2[nH]c(-c3ccccc3Cl)c(O)c(=O)c12 [Example 30, 6-(2-Chlorophenyl)-5-hydroxy-3-methyl-1-(pyridin-2-yl)-1,7-dihydro-4H-pyrazolo[3,4-b]pyridin-4-one]
inhibition at 1 µM: 64.1% | inhibition at 10 µM: 77.3% | IC50: > 150 nM

Cc1nn(-c2ccc(F)c(F)c2)c2[nH]c(-c3ccccc3Cl)c(O)c(=O)c12 [Example 31, 6-(2-Chlorophenyl)-1-(3,4-difluorophenyl)-5-hydroxy-3-methyl-1,7-dihydro-4H-pyrazolo[3,4-b]pyridin-4-one]
inhibition at 1 µM: 100% | inhibition at 10 µM: 100% | IC50: < 50 nM

Cc1nn(-c2ccc(F)cc2)c2[nH]c(-c3c(F)cccc3F)c(O)c(=O)c12 [Example 32, 6-(2,6-Difluorophenyl)-1-(4-fluorophenyl)-5-hydroxy-3-methyl-1,7-dihydro-4H-pyrazolo[3,4-b]pyridin-4-one]
inhibition at 1 µM: 100% | inhibition at 10 µM: 100% | IC50: < 50 nM

Cc1nn(-c2ccc(F)cc2)c2[nH]c(-c3ccccc3Cl)c(O)c(=O)c12 [Example 33, 6-(2-Chlorophenyl)-1-(4-fluorophenyl)-5-hydroxy-3-methyl-1,7-dihydro-4H-pyrazolo[3,4-b]pyridin-4-one]
inhibition at 1 µM: 100% | inhibition at 10 µM: 100% | IC50: < 50 nM

Cc1nn(-c2cccc(F)c2)c2[nH]c(-c3ccccc3Cl)c(O)c(=O)c12 [Example 34, 6-(2-Chlorophenyl)-1-(3-fluorophenyl)-5-hydroxy-3-methyl-1,7-dihydro-4H-pyrazolo[3,4-b]pyridin-4-one]
inhibition at 1 µM: 100% | inhibition at 10 µM: 100% | IC50: < 50 nM

Cc1nn(-c2cccc(F)c2)c2[nH]c(-c3c(F)cccc3F)c(O)c(=O)c12 [Example 35, 6-(2,6-Difluorophenyl)-1-(3-fluorophenyl)-5-hydroxy-3-methyl-1,7-dihydro-4H-pyrazolo[3,4-b]pyridin-4-one]
inhibition at 1 µM: 100% | inhibition at 10 µM: 100% | IC50: < 50 nM

Cc1nn(-c2ccccn2)c2[nH]c(-c3c(F)cccc3F)c(O)c(=O)c12 [Example 36, 6-(2,6-Difluorophenyl)-5-hydroxy-3-methyl-1-(pyridin-2-yl)-1,7-dihydro-4H-pyrazolo[3,4-b]pyridin-4-one]
inhibition at 1 µM: 84.2% | inhibition at 10 µM: 100% | IC50: > 150 nM

Cc1nn(-c2ccc(F)c(F)c2)c2[nH]c(-c3c(F)cccc3F)c(O)c(=O)c12 [Example 37, 6-(2,6-Difluorophenyl)-1-(3,4-difluorophenyl)-5-hydroxy-3-methyl-1,7-dihydro-4H-pyrazolo[3,4-b]pyridin-4-one]
inhibition at 1 µM: 100% | inhibition at 10 µM: 100% | IC50: 50 to 100 nM

COc1ccc(-c2[nH]c3c(c(C)nn3-c3ccc(F)cc3)c(=O)c2O)c(F)c1 [Example 38, 6-(2-Fluoro-4-methoxyphenyl)-1-(4-fluorophenyl)-5-hydroxy-3-methyl-1,7-dihydro-4H-pyrazolo[3,4-b]pyridin-4-one]
inhibition at 1 µM: 87.5% | inhibition at 10 µM: 86.1% | IC50: 100 to 150 nM

COc1ccc(-c2[nH]c3c(c(C)nn3-c3ccc(F)c(F)c3)c(=O)c2O)c(F)c1 [Example 39, 1-(3,4-Difluorophenyl)-6-(2-fluoro-4-methoxyphenyl)-5-hydroxy-3-methyl-1,7-dihydro-4H-pyrazolo[3,4-b]pyridin-4-one]
inhibition at 1 µM: 85% | inhibition at 10 µM: 87.3% | IC50: 100 to 150 nM

Cn1nc(C(F)(F)F)c2c(=O)c(O)c(-c3ccccc3Cl)[nH]c21 [Example 40, 6-(2-Chlorophenyl)-5-hydroxy-1-methyl-3-(trifluoromethyl)-1,7-dihydro-4H-pyrazolo[3,4-b]pyridin-4-one]
inhibition at 1 µM: 93.3% | inhibition at 10 µM: 100% | IC50: < 50 nM

Cn1nc(C(F)(F)F)c2c(=O)c(O)c(-c3ccccc3F)[nH]c21 [Example 41, 6-(2-Fluorophenyl)-5-hydroxy-1-methyl-3-(trifluoromethyl)-1,7-dihydro-4H-pyrazolo[3,4-b]pyridin-4-one]
inhibition at 1 µM: 77.7% | inhibition at 10 µM: 87.6% | IC50: > 150 nM

Cn1nc(C(F)(F)F)c2c(=O)c(O)c(-c3ccc(F)cc3)[nH]c21 [Example 42, 6-(4-Fluorophenyl)-5-hydroxy-1-methyl-3-(trifluoromethyl)-1,7-dihydro-4H-pyrazolo[3,4-b]pyridin-4-one]
inhibition at 1 µM: 86.8% | inhibition at 10 µM: 96.5% | IC50: 100 to 150 nM

Cn1nc(C(F)(F)F)c2c(=O)c(O)c(-c3ccc(Cl)cc3)[nH]c21 [Example 43, 6-(4-Chlorophenyl)-5-hydroxy-1-methyl-3-(trifluoromethyl)-1,7-dihydro-4H-pyrazolo[3,4-b]pyridin-4-one]
inhibition at 1 µM: 90.6% | inhibition at 10 µM: 97.9% | IC50: 100 to 150 nM

Cn1nc(C(F)(F)F)c2c(=O)c(O)c(-c3ccc(F)cc3Cl)[nH]c21 [Example 44, 6-(2-Chloro-4-fluorophenyl)-5-hydroxy-1-methyl-3-(trifluoromethyl)-1,7-dihydro-4H pyrazolo[3,4-b]pyridin-4-one]
inhibition at 1 µM: 84.6% | inhibition at 10 µM: 100% | IC50: > 150 nM

Cn1nc(C(F)(F)F)c2c(=O)c(O)c(-c3c(F)cccc3Cl)[nH]c21 [Example 45, 6-(2-Chloro-6-fluorophenyl)-5-hydroxy-1-methyl-3-(trifluoromethyl)-1,7-dihydro-4H-pyrazolo[3,4-b]pyridin-4-one]
inhibition at 1 µM: 89.1% | inhibition at 10 µM: 98.6% | IC50: 100 to 150 nM

Cn1nc(C(F)(F)F)c2c(=O)c(O)c(-c3ccncc3Cl)[nH]c21 [Example 46, 6-(3-Chloropyridin-4-yl)-5-hydroxy-1-methyl-3-(trifluoromethyl)-1,7-dihydro-4H-pyrazolo[3,4-b]pyridin-4-one hydrochloride]
inhibition at 1 µM: 73.6% | inhibition at 10 µM: 100% | IC50: 100 to 150 nM

COc1ccc(-c2[nH]c3c(c(C(F)(F)F)nn3C)c(=O)c2O)c(F)c1 [Example 47, 6-(2-Fluoro-4-methoxyphenyl)-5-hydroxy-1-methyl-3-(trifluoromethyl)-1,7-dihydro-4H-pyrazolo[3,4-b]pyridin-4-one]
inhibition at 1 µM: 100% | inhibition at 10 µM: 100% | IC50: 50 to 100 nM

COc1ccc(-c2[nH]c3c(c(C(F)(F)F)nn3C)c(=O)c2O)c(Cl)c1 [Example 48, 6-(2-Chloro-4-methoxyphenyl)-5-hydroxy-1-methyl-3-(trifluoromethyl)-1,7-dihydro-4H-pyrazolo[3,4-b]pyridin-4-one]
inhibition at 1 µM: 84.2% | inhibition at 10 µM: 98.3% | IC50: 100 to 150 nM
